According to patent US11267826B2, “Penicillin-binding protein inhibitors” (priority 2017, dated 2022):

Columns and labels:
[1] = system: E. coli K12 PBP1a/b; assay: Bocillin FL competition binding assay, PBP1a/1b combined; parameters: species or system Escherichia coli K12; details: 15 min pre-incubation, PBP 1a/1b combined
Protocol: (§1) To determine the ability of test compounds to bind Penicillin Binding Proteins (PBPs), a competition binding assay using Bocillin FL (fluorescent derivative of penicillin V) was adapted from the classical method used to assess PBP potency of beta-lactams.
(§2) Penicillin binding proteins were isolated from Escherichia coli K12 by growth of Escherichia coli K12 from a single colony in 4 L of Luria-Bertani (LB) broth at 35° C. and 250 rpm to an OD600 nm of 0.5. The cells were harvested by centrifugation at 7,000×g for 10 min. at 4° C. Cells were resuspended and washed in 50 mM potassium phosphate pH 7.5. The cells were re-suspended in sonication buffer [50 mM Tris-HCl pH 7.5, 1 mM MgCl2, 1 mM beta-mercaptoethanol, and 5 μg/mL DNAse I] and sonicated by 4 passes of 30 seconds at 45 W on ice. The sample was clarified by centrifugation at 3,000×g to remove cell debris and unbroken cells and supernatant containing the membrane proteins was retained. The membrane proteins including the PBPs were further purified from soluble constituents by an ultracentrifugation step at 100,000×g for 30 min. at 4° C. The membrane proteins are washed twice with 10 mM sodium phosphate pH 7, resuspended in a volume of 5 mL, quantitated by BCA assay, adjusted to […] and frozen at −80° C. until use.
(§3) The adapted Bocillin FL competition binding method described herein incorporates a 15 min. pre-incubation of test compound with isolated PBPs to attempt to balance the difference in mechanism of inhibition between beta-lactams (largely irreversible covalent bond to active site Serine) and the boron-containing PBP inhibitor test compounds (reversible covalent bond to active site Serine). Briefly, 50 μL reactions consisted of 100 μg's of total membrane protein extracts containing PBPs incubated with a dilution series of test compound ranging from 0.005 μg/mL to 2,480 μg/mL in 10 mM sodium phosphate pH7 containing 350 mM NaCl. Thirty minute reactions at 35° C. were initiated by addition of […] Bocillin FL, quenched by addition of SDS-PAGE loading buffer containing sodium dodecyl sulfate (SDS) and heated for 15 minutes at 95° C. to denature proteins in preparation for SDS-polyacrylamide gel electrophoresis. The Bocillin FL labeled PBPs are then separated by SDS-PAGE in Novex NuPage 10% Bis-Tris pre-cast gels (Invitrogen). The SDS-PAGE gel, post-electrophoresis, is then washed in water to remove excess SDS for 10 minutes at room temperature and placed on the scanning bed of a GE Healthcare/Amersham Biosciences Storm 860 fluorescence scanner. The excitation wavelength is in the blue spectrum at 450 nm and the emission at 520 nm is captured by the instrument. Effective PBP inhibitors are detected by a reduction in Bocillin FL labeling of the particular PBP over the dose range of test compound in a dose-responsive manner. High molecular weight PBP 1a/1b are not resolved by these gels, thus we report HMW PBP binding results in μg/mL for PBPs 1a/1b combined as well as for PBP2 and PBP3.
(§4) Representative results are shown in Table 2, where A represents a potency of >1000 μg/mL, B represents a potency between 64 and 1000 μg/mL inclusive, and C represents a potency of <64 μg/mL. NT=Not Tested.

[2] = biological target: T1, E. coli PBP2 (Escherichia coli, UniProt P0AD65); assay: Bocillin FL competition binding assay, PBP2; parameters: species or system Escherichia coli K12; details: 15 min pre-incubation
T1 construct: 100 μg's of total membrane protein extracts containing PBPs; endogenous in cells; host or cells: Escherichia coli K12, membrane protein fraction
T1 sequence (P0AD65 whole entry): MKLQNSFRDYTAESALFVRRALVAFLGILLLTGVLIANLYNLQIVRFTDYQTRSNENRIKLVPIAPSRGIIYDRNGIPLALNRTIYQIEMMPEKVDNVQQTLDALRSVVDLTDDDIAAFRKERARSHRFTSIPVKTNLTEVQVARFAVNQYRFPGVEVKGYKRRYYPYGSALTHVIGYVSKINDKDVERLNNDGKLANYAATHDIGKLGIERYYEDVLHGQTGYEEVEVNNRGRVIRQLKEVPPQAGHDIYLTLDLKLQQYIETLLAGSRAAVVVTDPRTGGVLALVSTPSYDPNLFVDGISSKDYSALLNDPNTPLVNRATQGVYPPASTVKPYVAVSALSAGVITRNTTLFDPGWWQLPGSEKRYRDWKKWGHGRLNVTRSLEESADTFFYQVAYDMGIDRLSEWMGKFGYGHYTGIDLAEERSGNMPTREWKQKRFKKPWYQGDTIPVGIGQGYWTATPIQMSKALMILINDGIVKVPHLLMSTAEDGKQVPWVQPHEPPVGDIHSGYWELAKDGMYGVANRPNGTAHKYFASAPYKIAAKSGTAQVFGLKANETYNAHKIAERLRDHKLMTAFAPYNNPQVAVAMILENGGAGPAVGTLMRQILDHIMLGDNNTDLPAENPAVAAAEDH
Protocol: as §1, §2, §3, §4

[3] = biological target: T2, E. coli PBP3 (Escherichia coli, UniProt P0AD68); assay: Bocillin FL competition binding assay, PBP3; parameters: species or system Escherichia coli K12; details: 15 min pre-incubation
T2 construct: 100 μg's of total membrane protein extracts containing PBPs; endogenous in cells; host or cells: Escherichia coli K12, membrane protein fraction
T2 sequence (P0AD68 1-577): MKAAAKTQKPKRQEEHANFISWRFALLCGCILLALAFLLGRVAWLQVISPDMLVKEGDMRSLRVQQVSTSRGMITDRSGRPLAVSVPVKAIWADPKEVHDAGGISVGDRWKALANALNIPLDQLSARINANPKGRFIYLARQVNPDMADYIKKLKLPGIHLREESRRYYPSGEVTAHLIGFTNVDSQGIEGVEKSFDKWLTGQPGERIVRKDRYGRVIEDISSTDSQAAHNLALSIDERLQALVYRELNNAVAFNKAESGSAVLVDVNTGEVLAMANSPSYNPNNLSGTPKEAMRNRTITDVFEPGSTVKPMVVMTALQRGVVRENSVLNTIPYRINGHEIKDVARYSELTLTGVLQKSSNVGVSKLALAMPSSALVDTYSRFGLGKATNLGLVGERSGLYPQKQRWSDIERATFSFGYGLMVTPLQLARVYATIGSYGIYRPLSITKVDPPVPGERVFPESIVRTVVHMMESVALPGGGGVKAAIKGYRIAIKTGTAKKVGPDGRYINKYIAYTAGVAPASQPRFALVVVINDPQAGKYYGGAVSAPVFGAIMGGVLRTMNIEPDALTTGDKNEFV
Protocol: as §1, §2, §3, §4

[4] = system: S. aureus ATCC 29213; assay: Broth microdilution MIC assay, S. aureus; type: cell-based; details: Staphylococcus aureus, ATCC29213; broth microdilution, 16-20 hours at 37° C.; read-out: S. aureus 29213 MIC
In short: (§5)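 CLSI broth microdilution in cation-supplemented Mueller-Hinton broth; 2-fold serial compound dilutions inoculated at 5×10^5 CFU/mL from 3-5 h log-phase cultures. Plates incubated 16-20 hours at 37° C. MIC read visually as lowest concentration with no bacterial growth.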

[5] = system: hyper-permeable E. coli 901C; assay: Broth microdilution MIC assay, hyper-permeable E. coli; type: cell-based; details: Escherichia coli, read-out: E. coli 901C MIC
In short: as §5

NCc1ccc(/C(=N/O)C(=O)N[C@H]2Cc3cccc(C(=O)O)c3OB2O)cc1 [Example 12, (R,Z)-3-(2-(4-(aminomethyl)phenyl)-2-(hydroxyimino)acetamido)-2-hydroxy-3,4-dihydro-2H-benzo[e][1,2]oxaborinine-8-carboxylic Acid]
E. coli K12 PBP1a/b Potency [1]: B (B represents a potency between 64 and 1000 μg/mL inclusive)
E. coli PBP2 Potency [2]: B (B represents a potency between 64 and 1000 μg/mL inclusive)
E. coli PBP3 Potency [3]: B (B represents a potency between 64 and 1000 μg/mL inclusive)
MIC [4]: < 64 µg/mL
MIC [5]: > 128 µg/mL

N#CC1CCC(NC(=O)CO/N=C(\C(=O)N[C@H]2Cc3cccc(C(=O)O)c3OB2O)c2csc(N)n2)CC1 (stereo partly drawn) [Example 63, (R)-3-((Z)-2-(2-aminothiazol-4-yl)-2-((2-(((1s,4S)-4-cyanocyclohexyl)amino)-2-oxoethoxy)imino)acetamido)-2-hydroxy-3,4-dihydro-2H-benzo[e][1,2]oxaborinine-8-carboxylic Acid]
E. coli K12 PBP1a/b Potency [1]: B (B represents a potency between 64 and 1000 μg/mL inclusive)
E. coli PBP2 Potency [2]: B (B represents a potency between 64 and 1000 μg/mL inclusive)
E. coli PBP3 Potency [3]: C (C represents a potency of <64 μg/mL)

CC(C)(O/N=C(\C(=O)N[C@H]1Cc2cccc(C(=O)O)c2OB1O)c1csc(N)n1)C(N)=O [Example 72, (R,Z)-3-(2-(((1-amino-2-methyl-1-oxopropan-2-yl)oxy)imino)-2-(2-aminothiazol-4-yl)acetamido)-2-hydroxy-3,4-dihydro-2H-benzo[e][1,2]oxaborinine-8-carboxylic Acid]
E. coli K12 PBP1a/b Potency [1]: C (C represents a potency of <64 μg/mL)
E. coli PBP2 Potency [2]: C (C represents a potency of <64 μg/mL)
E. coli PBP3 Potency [3]: C (C represents a potency of <64 μg/mL)
MIC [4]: > 128 µg/mL
MIC [5]: < 64 µg/mL

CNC(=O)C(C)(C)O/N=C(\C(=O)N[C@H]1Cc2cccc(C(=O)O)c2OB1O)c1csc(N)n1 [Example 69, (R,Z)-3-(2-(2-aminothiazol-4-yl)-2-(((2-methyl-1-(methylamino)-1-oxopropan-2-yl)oxy)imino)acetamido)-2-hydroxy-3,4-dihydro-2H-benzo[e][1,2]oxaborinine-8-carboxylic Acid]
E. coli K12 PBP1a/b Potency [1]: C (C represents a potency of <64 μg/mL)
E. coli PBP2 Potency [2]: C (C represents a potency of <64 μg/mL)
E. coli PBP3 Potency [3]: C (C represents a potency of <64 μg/mL)
MIC [4]: > 128 µg/mL
MIC [5]: < 64 µg/mL

CC(O/N=C(\C(=O)N[C@H]1Cc2cccc(C(=O)O)c2OB1O)c1csc(N)n1)C(=O)O (stereo partly drawn) [Example 71, (3R)-3-((Z)-2-(2-aminothiazol-4-yl)-2-((1-carboxyethoxy)imino)acetamido)-2-hydroxy-3,4-dihydro-2H-benzo[e][1,2]oxaborinine-8-carboxylic Acid]
E. coli K12 PBP1a/b Potency [1]: C (C represents a potency of <64 μg/mL)
E. coli PBP2 Potency [2]: C (C represents a potency of <64 μg/mL)
E. coli PBP3 Potency [3]: C (C represents a potency of <64 μg/mL)
MIC [4]: > 128 µg/mL
MIC [5]: < 64 µg/mL

Nc1nc(/C(=N/OCC(=O)NCCCCCNC(=O)CBr)C(=O)N[C@H]2Cc3cccc(C(=O)O)c3OB2O)cs1 [Example 78, (R,Z)-3-(2-(2-aminothiazol-4-yl)-15-bromo-6,14-dioxo-4-oxa-3,7,13-triazapentadec-2-enamido)-2-hydroxy-3,4-dihydro-2H-benzo[e][1,2]oxaborinine-8-carboxylic Acid]
E. coli K12 PBP1a/b Potency [1]: B (B represents a potency between 64 and 1000 μg/mL inclusive)
E. coli PBP2 Potency [2]: B (B represents a potency between 64 and 1000 μg/mL inclusive)
E. coli PBP3 Potency [3]: B (B represents a potency between 64 and 1000 μg/mL inclusive)
MIC [5]: > 128 µg/mL

CNc1nc(/C(=N/O)C(=O)N(C)[C@H]2Cc3cccc(C(=O)O)c3OB2O)cs1 [Example 22, (R,Z)-2-hydroxy-3-(2-(hydroxyimino)-N-methyl-2-(2-(methylamino)thiazol-4-yl)acetamido)-3,4-dihydro-2H-benzo[e][1,2]oxaborinine-8-carboxylic Acid]
MIC [4]: > 128 µg/mL
MIC [5]: > 128 µg/mL

CNc1nc(/C(=N/OCc2ccccc2)C(=O)N(C)[C@H]2Cc3cccc(C(=O)O)c3OB2O)cs1 [Example 23, (R,Z)-3-(2-((benzyloxy)imino)-N-methyl-2-(2-(methylamino)thiazol-4-yl)acetamido)-2-hydroxy-3,4-dihydro-2H-benzo[e][1,2]oxaborinine-8-carboxylic Acid]
MIC [4]: > 128 µg/mL
MIC [5]: > 128 µg/mL

Nc1nc(/C(=N/OCCCCl)C(=O)N[C@H]2Cc3cccc(C(=O)O)c3OB2O)cs1 [Example 115, (R,Z)-3-(2-(2-aminothiazol-4-yl)-2-((3-chloropropoxy)imino)acetamido)-2-hydroxy-3,4-dihydro-2H-benzo[e][1,2]oxaborinine-8-carboxylic Acid]
MIC [4]: > 128 µg/mL
MIC [5]: < 64 µg/mL

Nc1nc(/C(=N/O)C(=O)N[C@H]2Cc3ccc(C=O)c(C(=O)O)c3OB2O)cs1 [Example 24, (R,Z)-3-(2-(2-aminothiazol-4-yl)-2-(hydroxyimino)acetamido)-7-formyl-2-hydroxy-3,4-dihydro-2H-benzo[e][1,2]oxaborinine-8-carboxylic Acid]
MIC [4]: 64 to 128 µg/mL
MIC [5]: > 128 µg/mL

CC(C)O/N=C(\C(=O)N[C@H]1Cc2cccc(C(=O)O)c2OB1O)c1csc(N)n1 [Example 97, (R,Z)-3-(2-(2-aminothiazol-4-yl)-2-(isopropoxyimino)acetamido)-2-hydroxy-3,4-dihydro-2H-benzo[e][1,2]oxaborinine-8-carboxylic Acid]
MIC [4]: 64 to 128 µg/mL
MIC [5]: > 128 µg/mL

NC(=O)CNc1nc(/C(=N/O)C(=O)N[C@H]2Cc3cccc(C(=O)O)c3OB2O)cs1 [Example 109, (R,Z)-3-(2-(2-((2-amino-2-oxoethyl)amino)thiazol-4-yl)-2-(hydroxyimino)acetamido)-2-hydroxy-3,4-dihydro-2H-benzo[e][1,2]oxaborinine-8-carboxylic Acid]
MIC [4]: > 128 µg/mL
MIC [5]: > 128 µg/mL

O=C(N[C@H]1Cc2cccc(C(=O)O)c2OB1O)/C(Cn1cncn1)=N\O [Example 126, (R,Z)-2-hydroxy-3-(2-(hydroxyimino)-3-(1H-1,2,4-triazol-1-yl)propanamido)-3,4-dihydro-2H-benzo[e][1,2]oxaborinine-8-carboxylic Acid]
MIC [4]: > 128 µg/mL
MIC [5]: > 128 µg/mL

O=C(O)CO/N=C(/Cn1cncn1)C(=O)N[C@H]1Cc2cccc(C(=O)O)c2OB1O [Example 112, (R,Z)-3-(2-((carboxymethoxy)imino)-3-(1H-1,2,4-triazol-1-yl)propanamido)-2-hydroxy-3,4-dihydro-2H-benzo[e][1,2]oxaborinine-8-carboxylic Acid]
MIC [4]: > 128 µg/mL
MIC [5]: > 128 µg/mL

CO/N=C(\C(=O)N[C@H]1Cc2cccc(C(=O)O)c2OB1O)c1ccc2c(c1)CNC2 [Example 5, (R,Z)-2-hydroxy-3-(2-(isoindolin-5-yl)-2-(methoxyimino)acetamido)-3,4-dihydro-2H-benzo[e][1,2]oxaborinine-8-carboxylic Acid]
MIC [4]: > 128 µg/mL
MIC [5]: > 128 µg/mL

CCCO/N=C(\C(=O)N[C@H]1Cc2cccc(C(=O)O)c2OB1O)c1csc(N)n1 [Example 98, (R,Z)-3-(2-(2-aminothiazol-4-yl)-2-(propoxyimino)acetamido)-2-hydroxy-3,4-dihydro-2H-benzo[e][1,2]oxaborinine-8-carboxylic Acid]
MIC [4]: < 64 µg/mL
MIC [5]: < 64 µg/mL
